From patent US20200239530A1, “COMPOUNDS AND METHODS OF MODULATING PROTEIN DEGRADATION” (Vividion Therapeutics, Inc., priority 2017, published 2020) come the findings set out here.

Assay type in all cases: binding
In one assay the target is T1, Q8NEG5 (Homo sapiens, UniProt Q8NEG5).
T1 construct: endogenous in cells; whole-cell lysate
T1 sequence (Q8NEG5 1-633): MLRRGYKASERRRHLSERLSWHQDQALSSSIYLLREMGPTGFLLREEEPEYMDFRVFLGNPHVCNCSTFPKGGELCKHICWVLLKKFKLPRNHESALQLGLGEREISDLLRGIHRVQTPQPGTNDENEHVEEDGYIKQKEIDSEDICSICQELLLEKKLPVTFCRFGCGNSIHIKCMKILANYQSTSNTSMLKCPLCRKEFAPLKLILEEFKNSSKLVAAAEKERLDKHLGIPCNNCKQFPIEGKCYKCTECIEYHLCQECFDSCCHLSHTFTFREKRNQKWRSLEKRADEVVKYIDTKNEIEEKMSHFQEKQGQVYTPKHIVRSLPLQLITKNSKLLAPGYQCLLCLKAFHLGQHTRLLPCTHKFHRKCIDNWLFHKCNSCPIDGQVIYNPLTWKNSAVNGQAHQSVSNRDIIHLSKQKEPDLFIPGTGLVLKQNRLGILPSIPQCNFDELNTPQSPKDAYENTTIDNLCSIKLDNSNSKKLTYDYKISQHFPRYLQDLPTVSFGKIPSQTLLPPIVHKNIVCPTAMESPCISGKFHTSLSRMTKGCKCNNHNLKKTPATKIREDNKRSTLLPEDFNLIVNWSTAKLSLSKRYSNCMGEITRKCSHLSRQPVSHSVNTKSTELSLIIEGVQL
Kind of assay: Cysteine liganding, probe competition (Table 2B). The source says:
(§1) The following 96-well sample prep protocol was used for sample preparation.

The next assay deals with T2, P60006 (Homo sapiens, UniProt P60006).
T2 construct: Cells were resuspended in cold PBS on ice and sonicated with a probe sonicator to achieve lysis; endogenous in cells
Kind of assay: Competitive cysteine profiling, probe competition (Table 2B).
Source text: as §1

The target in the next assay is T3, Q5XKL5 (Homo sapiens, UniProt Q5XKL5).
T3 construct: 200 μL of lysate containing 5 mg/ml proteome was treated with 2 μL of 100× compound stock; endogenous in cells
T3 sequence (Q5XKL5 whole entry): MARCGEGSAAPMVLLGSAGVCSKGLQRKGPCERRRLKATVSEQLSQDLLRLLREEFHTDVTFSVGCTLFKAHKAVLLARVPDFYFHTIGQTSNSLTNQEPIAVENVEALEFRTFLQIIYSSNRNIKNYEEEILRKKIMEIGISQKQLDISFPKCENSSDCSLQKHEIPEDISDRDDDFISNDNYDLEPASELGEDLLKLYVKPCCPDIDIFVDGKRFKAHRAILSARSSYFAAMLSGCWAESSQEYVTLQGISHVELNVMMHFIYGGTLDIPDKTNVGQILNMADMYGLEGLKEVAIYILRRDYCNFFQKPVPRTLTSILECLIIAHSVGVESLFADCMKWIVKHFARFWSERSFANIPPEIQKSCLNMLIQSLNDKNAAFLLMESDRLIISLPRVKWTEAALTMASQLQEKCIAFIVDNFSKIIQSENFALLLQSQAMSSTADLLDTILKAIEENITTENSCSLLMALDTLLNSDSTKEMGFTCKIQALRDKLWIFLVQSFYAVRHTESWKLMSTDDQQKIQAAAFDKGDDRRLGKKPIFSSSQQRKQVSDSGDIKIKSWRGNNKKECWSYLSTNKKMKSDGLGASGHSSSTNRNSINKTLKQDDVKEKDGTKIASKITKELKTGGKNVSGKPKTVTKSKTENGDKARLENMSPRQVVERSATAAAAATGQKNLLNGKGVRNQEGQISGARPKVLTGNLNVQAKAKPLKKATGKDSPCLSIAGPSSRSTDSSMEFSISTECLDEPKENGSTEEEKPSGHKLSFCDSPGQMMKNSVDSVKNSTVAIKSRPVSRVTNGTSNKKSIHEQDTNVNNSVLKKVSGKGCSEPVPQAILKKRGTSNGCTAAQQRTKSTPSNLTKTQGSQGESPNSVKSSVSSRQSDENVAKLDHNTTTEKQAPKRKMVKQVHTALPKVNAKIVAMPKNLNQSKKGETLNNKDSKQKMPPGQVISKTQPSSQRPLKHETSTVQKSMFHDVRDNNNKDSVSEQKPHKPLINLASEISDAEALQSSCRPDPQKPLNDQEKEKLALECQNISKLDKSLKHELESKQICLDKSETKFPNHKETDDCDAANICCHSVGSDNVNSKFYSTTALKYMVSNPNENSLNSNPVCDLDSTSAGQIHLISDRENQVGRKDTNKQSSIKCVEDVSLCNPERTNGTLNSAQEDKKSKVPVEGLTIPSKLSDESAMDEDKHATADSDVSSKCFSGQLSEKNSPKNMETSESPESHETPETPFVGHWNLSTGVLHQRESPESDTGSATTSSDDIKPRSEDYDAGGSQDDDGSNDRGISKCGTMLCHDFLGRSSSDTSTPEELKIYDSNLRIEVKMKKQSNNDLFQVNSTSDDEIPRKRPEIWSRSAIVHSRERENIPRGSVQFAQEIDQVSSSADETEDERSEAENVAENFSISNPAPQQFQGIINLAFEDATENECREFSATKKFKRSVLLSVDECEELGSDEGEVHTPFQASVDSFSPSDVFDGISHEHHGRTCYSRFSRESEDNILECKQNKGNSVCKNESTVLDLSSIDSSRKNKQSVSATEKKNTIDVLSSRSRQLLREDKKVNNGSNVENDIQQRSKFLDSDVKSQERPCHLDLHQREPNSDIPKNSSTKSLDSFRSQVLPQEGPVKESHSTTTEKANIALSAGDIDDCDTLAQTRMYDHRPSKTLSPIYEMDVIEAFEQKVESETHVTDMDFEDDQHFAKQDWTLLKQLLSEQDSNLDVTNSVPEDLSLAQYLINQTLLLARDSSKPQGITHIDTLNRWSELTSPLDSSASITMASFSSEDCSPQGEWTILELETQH
The description is as above.
Source text: as §1

In assay [1] the target is T4, RNF25 E3 ubiquitin-protein ligase RNF25 (Homo sapiens, UniProt Q96BH1).
T4 sequence (Q96BH1 1-459): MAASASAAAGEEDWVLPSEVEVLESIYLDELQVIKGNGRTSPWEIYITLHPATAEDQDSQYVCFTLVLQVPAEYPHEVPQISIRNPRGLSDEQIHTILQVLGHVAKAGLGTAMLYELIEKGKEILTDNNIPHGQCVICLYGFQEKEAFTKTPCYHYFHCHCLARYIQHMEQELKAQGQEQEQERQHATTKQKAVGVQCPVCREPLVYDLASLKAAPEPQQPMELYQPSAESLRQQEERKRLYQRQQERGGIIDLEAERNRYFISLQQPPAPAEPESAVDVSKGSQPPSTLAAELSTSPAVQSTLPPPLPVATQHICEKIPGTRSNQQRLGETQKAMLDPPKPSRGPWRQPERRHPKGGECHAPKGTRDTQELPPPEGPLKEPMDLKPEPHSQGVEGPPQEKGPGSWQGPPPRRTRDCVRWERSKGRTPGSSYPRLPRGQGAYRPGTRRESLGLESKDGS
Kind of assay: Cysteine liganding, probe competition. On the set-up: endogenous in cells. On the procedure: Cells were resuspended in cold PBS on ice and sonicated with a probe sonicator to achieve lysis. 200 μL of lysate containing 5 mg/ml proteome was treated with 2 μL of 100× compound stock in a 2-mL deep-well plate. The treated lysate was subsequently incubate at 25° C. for 1 hr with shaking at 600 rpm. The treated lysate was further incubated with 2 μL of 10 mM desthiobiotin iodoacetamide probe at 25° C. for 1 hr with shaking at 600 rpm. Next, the lysate was further treat with 20 μL of solution of PBS containing 11 mM MgSO4 and 2.5% Turbonuclease stock and incubated at 25° C. for 20 minutes with shaking at 600 rpm. 1.7 mL ice-cold acetone was added to each well and incubated at −20° C. for 2 hr, followed by max speed (4200 rpm) spin for 45 min. Acetone was then decanted and the plates were blotted to remove acetone. The plates were then dried in open air for 20 minutes. After drying, the plates were then covered with foil seal and stored at −80° C. overnight.
The next day, samples were re-suspended in 90 μL of solution of 9M urea, 50 mM ammonium bicarbonate and 10 mM DTT by incubating at 65C for 20 min with shaking at 1500 rpm. Next, samples were cooled to 37° C. and then 10 μL of 500 mM iodoacetamide solution (92.48 mg/ml) was added. The samples were then incubated at 37° C. for 30 min with shaking at 600 rpm.
ZEBA desalting plates were equilibrated 4 times using 250 μL of 2M urea, 50 mM ammonium bicarbonate solution followed by centrifugation at 1500 rpm for 2 minutes. After equilibration was complete, samples were applied to ZEBA desalting plate and spin at 1500 rpm for 2 min on top of 1 mL 96-well deep-well collection plate to buffer exchange samples. 4 μL of solution containing 25 mM CaCl2 and 0.25 mg/mL trypsin was added to the plate and the plate was then incubated at 37° C. for 2 hrs with shaking at 600 rpm. 300 μL of solution containing 5% high-capacity streptavidin agarose slurry in 25 mM Tris-HCl pH 7.5, 150 mM NaCl, and 0.1% NP-40 then added. The plate was incubated at 25° C. for 2 hrs with shaking at 600 rpm. Samples were transferred to 25 μm filter plate and spin at 1000 rpm for 2 min. Samples were then washed 3 times with 0.75 mL of wash buffer (25 mM Tris-HCl pH 7.5, 150 mM NaCl, and 0.1% NP-40) followed by washing 3 times with 0.75 mL PBS, and then 4 times with 0.75 mL water. After the washing step, samples were eluted into polypropylene 96-well plate by addition of 250 µL of 50% MeCN/water, 0.1% formic acid and allowed to gravity drip for 10 min, followed by centrifugation at 1000 rpm for 2 min. Speedvac was used to dry the plates at about 45° C. for […]. Then the plates were covered with foil seal and stored at −20° C.
Samples were resuspended by addition of 20 μl of 12.5% ACN, 0.1% formic acid solution, covered with foil seal, and incubated at 42° C. for 10 minutes with shaking at 600 rpm. Then add 30 μL of 0.1% formic acid solution was added and the plate was covered and incubated at 42° C. for 10 minutes with shaking at 600 rpm. Seal plate was then sealed with a 96-well silicon mat for analysis.

Where [2] appears, read: 100 uM, read-out: KB02_100 uM_percent_inhibition.
Where [3] appears, read: 500 uM, read-out: KB05_500 uM_percent_inhibition.

Each structure is given as a SMILES string. Where two headings read alike, the source gives them in different places.

Consider `O=C(CCl)Nc1cc(C(F)(F)F)cc(C(F)(F)F)c1` [KBO3], for which the “KB03_500 uM_percent_inhibition” value at Q8NEG5 (500 uM) was found to be 8%. The “KB03_100 uM_percent_inhibition” value at P60006 (100 uM) is 49%. Also, the “KB03_500 uM_percent_inhibition” value at P60006 (500 uM) turned out to be 65%. Besides, the “KB03_500 uM_percent_inhibition” value at Q5XKL5 (500 uM) was 18%. Besides, in assay [1] (uniprot Q96BH1), the 100 ave is 14.3, the “500 Max” value is reported as 62.0 and the 500 ave was 62.0. This compound returned a 100 Max in assay [1] (uniprot Q96BH1, unit assumed) of 14.3%.
With `COc1ccc2c(c1)CCCN2C(=O)CCl` [KB02], the inhibition at 500 µM came out at 35% on Q8NEG5 (read-out: KB02_500 uM_percent_inhibition) and 93% on P60006 (500 uM, read-out: KB02_500 uM_percent_inhibition). Moreover, the inhibition at 100 µM amounted to 44% at P60006 (setting [2]) and 27% on Q5XKL5 (setting [2]). For the same compound, the Liganded entry in assay [1] (RNF25 Res# 417, uniprot Q96BH1) is “YES”.
Consider `C=CC(=O)N(c1ccccc1)c1ccc(Br)cc1` [KB05], for which the inhibition at 500 µM on Q8NEG5 (read-out: KB05_500 uM_percent_inhibition) stood at 16%; on P60006 (setting [3]) it was 74%; on Q5XKL5 (setting [3]), 37%. The inhibition at 100 µM stood at 24% at P60006 (100 uM, read-out: KB05_100 uM_percent_inhibition) and 11% in assay [1] (100 uM, UniProt Q96BH1, read-out: percent_inhibition). The “KB05_500 uM_percent_inhibition” value on Q5XKL5 (500 uM) is listed as 55%.
